Legend:
[1] = system: isolated uterine smooth muscle; experiment: Effects on isolated uterine smooth muscle of rats (relaxation of oxytocin pre-contracted preparations); type: cell-based
Protocol: Non-pregnant female Wistar rats weighing about 200 g were killed and the uteruses were isolated. Each uterine preparation (15 mm in length) was mounted vertically in an organ bath containing modified Locke-Ringer solution of following composition: 150 mM NaCl, 5.4 mM KCl, 0.36 mM CaCl₂, 0.19 mM MgCl₂, 4.8 mM NaHCO₃, 0.15 mM KH₂ PO₄, 0.56 mM Na₂ HPO₄ and 2.8 mM Glucose. The bath medium was maintained at 37 °C and was equilibrated with a gas mixture consisting of 95% O₂ + 5% CO₂. The uterine preparations were pre-contracted with oxytocin (10 ⁻² U/ml) and the muscle relaxations induced by the test compounds were recorded isotonically. The test compounds were added cumulatively to the bath. ED₅₀ values for concentration-response curves which produce 50% relaxations of the maximal relaxations (10 ⁻⁶ M isoproterenol) were calculated.

[2] = system: isolated atrium; experiment: Effects on isolated atrium of guinea-pigs (spontaneous beating rate of right atrium); type: cell-based
Protocol: Male Hartley guinea-pigs weighing about 500 g were killed and the atria were isolated. Each right atrium was mounted vertically in an organ bath containing Krebs-Henseleit solution and the spontaneous beating rate was recorded. The bath medium was maintained at 30°C and was equilibrated with a gas mixture consisting of 95% O₂ + 5% CO₂. The test compounds were added cumulatively to the bath. ED₅₀ values for concentration-response curves which produce 50% increases of the basal spontaneous beating rate were calculated. The results are shown in Table 3 The selcctive relaxing activities of the compound of the present invention on the uterine and the bladder smooth muscle were compared with positive chronotropic effect in the atrium.

`CC(C)(C)NCC(O)c1ccc(O)cc1Cl` (single isomer, unassigned; (-)) [(-)-enantiomer, (-)-α -[(tert-Butylamino)methyl]-2-chloro-4-hydroxybenzyl alcohol] was tested. Which “effect relative to ritodrine” value ([1]; from the ED₅₀ values of Table 1, fold greater than ritodrine) did it give?
The value was roughly 25 fold.

And the “effect relative to the (+)-enantiomer” value ([1]; from the ED₅₀ values of Table 1, fold greater than the (+)-enantiomer)?
The value was “about 130 fold”.

And the “Selectivity Bladder” value ([2]; ED₅₀ value (positive chronotropic effect in the atrium) / ED₅₀ value (relaxing effect on the bladder smooth muscle))?
The value was 462.

And the “Selectivity Uterus” value ([2]; ED₅₀ value (positive chronotropic effect in the atrium) / ED₅₀ value (relaxing effect on the uterine smooth muscle))?
The value was 21.

From patent EP0420120A2, “Optically active benzyl alcohol compound and pharmaceutical composition” (HOKURIKU PHARMACEUTICAL CO., LTD., priority 1989, dated 1991)
